{
  "source": "patent US20140328890A1",
  "about": "“Silver Iodate Compounds Having Antimicrobial Properties” (priority 2010, published 2014)",
  "origin": "cited, not measured here",
  "conditions": "published literature",
  "data": [
    {"smiles": "[Ag+].[Ag+].[Ag+].[Ag+].[Ag+].[O-][I+]([O-])([O-])([O-])([O-])[O-]", "note": "[Ag5IO6, pentasilver hexaoxoiodate]", "values": [
      {"measurement": "sensitivity to light and air", "value": "insensitive to light and air"}
    ]}
  ]
}
